{"source": "patent US20260285850A1", "about": "“SUBSTITUTED OXAZOLIDINONES AND IMIDAZOLINONES AS HERBICIDES” (FMC CORPORATION, priority 2023, published 2026)", "assay_type_in_all_cases": "in vivo", "key": {"[1]": {"system": "ducksalad (Heteranthera limosa)", "experiment": "Test B flooded paddy test, visual plant response rating 0-100", "settings": "250 g ai/ha, Flood, applied to paddy water, evaluated after 13 days", "description": "(§1) Plant species in the flooded paddy test selected from barnyardgrass (Echinochloa crusgalli), ducksalad (Heteranthera limosa), rice (Oryza sativa), and sedge, umbrella (small-flower umbrella sedge, Cyperus difformis) were grown to the 2-leaf stage for testing. At time of treatment, test pots were flooded to 3 cm above the soil surface, treated by application of test compounds directly to the paddy water, and then maintained at that water depth for the duration of the test. Treated plants and controls were maintained in a greenhouse for 13 days, after which time all species were compared to controls and visually evaluated. […] A dash (-) response means no test result."}, "rice (Oryza sativa)": {"system": "rice (Oryza sativa)", "experiment": "Test B flooded paddy test, visual plant response rating 0-100", "settings": "250 g ai/ha, Flood, applied to paddy water, evaluated after 13 days", "description": "as §1"}, "[2]": {"system": "barnyardgrass (Echinochloa crusgalli)", "experiment": "Test B flooded paddy test, visual plant response rating 0-100", "settings": "250 g ai/ha, Flood, applied to paddy water, evaluated after 13 days", "description": "as §1"}, "[3]": {"system": "sedge, umbrella (small-flower umbrella sedge, Cyperus difformis)", "experiment": "Test B flooded paddy test, visual plant response rating 0-100", "settings": "250 g ai/ha, Flood, applied to paddy water, evaluated after 13 days", "description": "as §1"}, "[4]": {"system": "barnyardgrass (Echinochloa crus-galli)", "experiment": "Test A preemergence soil spray, visual injury rating 0-100", "settings": "10 days", "description": "(§2) Seeds of plant species selected from barnyardgrass (Echinochloa crus-galli), blackgrass (Alopecurus myosuroides), corn (Zea mays), foxtail, giant (giant foxtail, Setaria faberi), green foxtail (Setaria viridis), goosegrass (Eleusine indica), kochia (Bassia scoparia), oat, wild (wild oat, Avena fatua), palmer (palmer amaranth, palmer pigweed, Amaranthus palmeri), ragweed (common ragweed, Ambrosia artemisiifolia), ryegrass, Italian (italian ryegrass, Lolium multiflorum), soybean (Glycine max) and wheat (Triticum aestivum) were planted into a blend of loam soil and sand and treated preemergence with a directed soil spray using test chemicals formulated in a non-phytotoxic solvent mixture which included a surfactant.\n(§3) At the same time, plants selected from these crops and weed species and also galium (catchweed bedstraw, Galium aparine) and horseweed (Erigeron canadensis) were planted in pots containing the same blend of loam soil and sand and treated with postemergence applications of test chemicals formulated in the same manner. Plants ranged in height from 2 to 10 cm and were in the one- to two-leaf stage for the postemergence treatment. Treated plants and untreated controls were maintained in a greenhouse for 10 days, after which time all treated plants were compared to untreated controls and visually evaluated for injury. Plant response ratings, summarized in Table A, are based on a 0 to 100 scale where 0 is no effect and 100 is complete control. A dash (-) response means no test result."}, "[5]": {"system": "green foxtail (Setaria viridis)", "experiment": "Test A preemergence soil spray, visual injury rating 0-100", "settings": "10 days", "description": "as §2, §3"}, "kochia (Bassia scoparia) [6]": {"system": "kochia (Bassia scoparia)", "experiment": "Test A preemergence soil spray, visual injury rating 0-100", "settings": "10 days", "description": "as §2, §3"}, "[7]": {"system": "wheat (Triticum aestivum)", "experiment": "Test A preemergence soil spray, visual injury rating 0-100", "settings": "10 days", "description": "as §2, §3"}, "soybean (Glycine max) [8]": {"system": "soybean (Glycine max)", "experiment": "Test A preemergence soil spray, visual injury rating 0-100", "settings": "10 days", "description": "as §2, §3"}, "[9]": {"system": "blackgrass (Alopecurus myosuroides)", "experiment": "Test A preemergence soil spray, visual injury rating 0-100", "settings": "10 days", "description": "as §2, §3"}, "[10]": {"system": "oat, wild (wild oat, Avena fatua)", "experiment": "Test A preemergence soil spray, visual injury rating 0-100", "settings": "10 days", "description": "as §2, §3"}, "corn (Zea mays) [11]": {"system": "corn (Zea mays)", "experiment": "Test A preemergence soil spray, visual injury rating 0-100", "settings": "10 days", "description": "as §2, §3"}, "[12]": {"system": "palmer (palmer amaranth, palmer pigweed, Amaranthus palmeri)", "experiment": "Test A preemergence soil spray, visual injury rating 0-100", "settings": "16 g ai/ha, 0 to 100 scale, 10 days", "description": "as §2, §3"}, "[13]": {"system": "ryegrass, Italian (italian ryegrass, Lolium multiflorum)", "experiment": "Test A preemergence soil spray, visual injury rating 0-100", "settings": "10 days", "description": "as §2, §3"}, "[14]": {"system": "ragweed (common ragweed, Ambrosia artemisiifolia)", "experiment": "Test A preemergence soil spray, visual injury rating 0-100", "settings": "10 days", "description": "as §2, §3"}, "[15]": {"system": "barnyardgrass (Echinochloa crus-galli)", "experiment": "Test A postemergence application, visual injury rating 0-100", "description": "as §2, §3"}, "[16]": {"system": "green foxtail (Setaria viridis)", "experiment": "Test A postemergence application, visual injury rating 0-100", "description": "as §2, §3"}, "kochia (Bassia scoparia) [17]": {"system": "kochia (Bassia scoparia)", "experiment": "Test A postemergence application, visual injury rating 0-100", "description": "as §2, §3"}, "[18]": {"system": "wheat (Triticum aestivum)", "experiment": "Test A postemergence application, visual injury rating 0-100", "description": "as §2, §3"}, "soybean (Glycine max) [19]": {"system": "soybean (Glycine max)", "experiment": "Test A postemergence application, visual injury rating 0-100", "description": "as §2, §3"}, "[20]": {"system": "blackgrass (Alopecurus myosuroides)", "experiment": "Test A postemergence application, visual injury rating 0-100", "description": "as §2, §3"}, "[21]": {"system": "oat, wild (wild oat, Avena fatua)", "experiment": "Test A postemergence application, visual injury rating 0-100", "description": "as §2, §3"}, "corn (Zea mays) [22]": {"system": "corn (Zea mays)", "experiment": "Test A postemergence application, visual injury rating 0-100", "description": "as §2, §3"}, "[23]": {"system": "palmer (palmer amaranth, palmer pigweed, Amaranthus palmeri)", "experiment": "Test A postemergence application, visual injury rating 0-100", "description": "as §2, §3"}, "[24]": {"system": "ryegrass, Italian (italian ryegrass, Lolium multiflorum)", "experiment": "Test A postemergence application, visual injury rating 0-100", "description": "as §2, §3"}, "[25]": {"system": "ragweed (common ragweed, Ambrosia artemisiifolia)", "experiment": "Test A postemergence application, visual injury rating 0-100", "description": "as §2, §3"}, "[26]": {"settings": "62 g ai/ha, 0 = no effect, 100 = complete control"}, "[27]": {"settings": "62 g ai/ha, postemergence, 10 days, 0 = no effect, 100 = complete control"}, "[28]": {"settings": "Postemergence, 16 g ai/ha, greenhouse 10 days, 0 no effect, 100 complete control"}}, "data": [{"smiles": "CC1(C(=O)NC2CC=C(C(=O)OCC3CC3)C2)CN(c2cc(Cl)cc(Cl)c2)C(=O)O1", "note": "(stereo not drawn) [Compound 198]", "values": [{"measurement": "Plant response rating, Ducksalad (0 to 100 scale, 0 is no effect and 100 is complete control)", "setting": "[1]", "value": 60}, {"measurement": "Plant response rating, Rice (0 to 100 scale, 0 is no effect and 100 is complete control)", "setting": "rice (Oryza sativa)", "value": 85}, {"measurement": "Plant response rating, Barnyardgrass (0 to 100 scale, 0 is no effect and 100 is complete control)", "setting": "[2]", "value": 90}, {"measurement": "Plant response rating, Sedge, Umbrella (0 to 100 scale, 0 is no effect and 100 is complete control)", "setting": "[3]", "value": 75}]}, {"smiles": "CCOC(=O)C1=CCC(NC(=O)C2(C)CN(c3cc(F)cc(F)c3)C(=O)O2)C1", "note": "(stereo not drawn) [Compound 111]", "values": [{"measurement": "Barnyardgrass plant response rating", "setting": "[4]; 16 g ai/ha, 0 to 100 scale", "value": 0}, {"measurement": "Barnyardgrass plant response rating (0-100)", "setting": "[4]; [26]", "value": 0}, {"measurement": "Foxtail, Green plant response rating", "setting": "[5]; 16 g ai/ha, 0 to 100 scale", "value": 0}, {"measurement": "Foxtail, Green plant response rating (0-100)", "setting": "[5]; [26]", "value": 0}, {"measurement": "Kochia plant response rating", "setting": "kochia (Bassia scoparia) [6]; 16 g ai/ha, 0 to 100 scale", "value": 0}, {"measurement": "Kochia plant response rating (0-100)", "setting": "kochia (Bassia scoparia) [6]; [26]", "value": 0}, {"measurement": "Wheat plant response rating", "setting": "[7]; 16 g ai/ha, 0 to 100 scale", "value": 0}, {"measurement": "Wheat plant response rating (0-100)", "setting": "[7]; [26]", "value": 0}, {"measurement": "Soybean plant response rating", "setting": "soybean (Glycine max) [8]; 16 g ai/ha, 0 to 100 scale", "value": 100}, {"measurement": "Soybean plant response rating (0-100)", "setting": "soybean (Glycine max) [8]; [26]", "value": 0}, {"measurement": "Blackgrass plant response rating", "setting": "[9]; 16 g ai/ha, 0 to 100 scale", "value": 0}, {"measurement": "Blackgrass plant response rating (0-100)", "setting": "[9]; [26]", "value": 0}, {"measurement": "Oat, Wild plant response rating", "setting": "[10]; 16 g ai/ha, 0 to 100 scale", "value": 0}, {"measurement": "Oat, Wild plant response rating (0-100)", "setting": "[10]; [26]", "value": 0}, {"measurement": "Corn plant response rating", "setting": "corn (Zea mays) [11]; 16 g ai/ha, 0 to 100 scale", "value": 0}, {"measurement": "Corn plant response rating (0-100)", "setting": "corn (Zea mays) [11]; [26]", "value": 0}, {"measurement": "Pigweed, Palmer plant response rating", "setting": "[12]", "value": 0}, {"measurement": "Ryegrass, Italian plant response rating", "setting": "[13]; 16 g ai/ha, 0 to 100 scale", "value": 0}, {"measurement": "Ryegrass, Italian plant response rating (0-100)", "setting": "[13]; [26]", "value": 0}, {"measurement": "Ragweed plant response rating", "setting": "[14]; 16 g ai/ha, 0 to 100 scale", "value": 0}, {"measurement": "Ragweed plant response rating (0-100)", "setting": "[14]; [26]", "value": 0}, {"measurement": "Plant response rating, Ducksalad (0 to 100 scale, 0 is no effect and 100 is complete control)", "setting": "[1]", "value": 0}, {"measurement": "Plant response rating, Rice (0 to 100 scale, 0 is no effect and 100 is complete control)", "setting": "rice (Oryza sativa)", "value": 0}, {"measurement": "Plant response rating, Barnyardgrass (0 to 100 scale, 0 is no effect and 100 is complete control)", "setting": "[2]", "value": 0}, {"measurement": "Plant response rating, Sedge, Umbrella (0 to 100 scale, 0 is no effect and 100 is complete control)", "setting": "[3]", "value": 0}, {"measurement": "Barnyardgrass plant response rating (0-100)", "setting": "[15]; [27]", "value": 20}, {"measurement": "Barnyardgrass plant response rating (0 to 100 scale)", "setting": "[15]; [28]", "value": 0}, {"measurement": "Foxtail, Green plant response rating (0-100)", "setting": "[16]; [27]", "value": 0}, {"measurement": "Foxtail, Green plant response rating (0 to 100 scale)", "setting": "[16]; [28]", "value": 0}, {"measurement": "Kochia plant response rating (0-100)", "setting": "kochia (Bassia scoparia) [17]; [27]", "value": 0}, {"measurement": "Kochia plant response rating (0 to 100 scale)", "setting": "kochia (Bassia scoparia) [17]; [28]", "value": 0}, {"measurement": "Wheat plant response rating (0-100)", "setting": "[18]; [27]", "value": 20}, {"measurement": "Wheat plant response rating (0 to 100 scale)", "setting": "[18]; [28]", "value": 0}, {"measurement": "Soybean plant response rating (0-100)", "setting": "soybean (Glycine max) [19]; [27]", "value": 0}, {"measurement": "Soybean plant response rating (0 to 100 scale)", "setting": "soybean (Glycine max) [19]; [28]", "value": 0}, {"measurement": "Blackgrass plant response rating (0-100)", "setting": "[20]; [27]", "value": 0}, {"measurement": "Blackgrass plant response rating (0 to 100 scale)", "setting": "[20]; [28]", "value": 0}, {"measurement": "Oat, Wild plant response rating (0-100)", "setting": "[21]; [27]", "value": 0}, {"measurement": "Oat, Wild plant response rating (0 to 100 scale)", "setting": "[21]; [28]", "value": 0}, {"measurement": "Corn plant response rating (0-100)", "setting": "corn (Zea mays) [22]; [27]", "value": 0}, {"measurement": "Corn plant response rating (0 to 100 scale)", "setting": "corn (Zea mays) [22]; [28]", "value": 0}, {"measurement": "Pigweed, Palmer plant response rating (0-100)", "setting": "[23]; [27]", "value": 10}, {"measurement": "Pigweed, Palmer plant response rating (0 to 100 scale)", "setting": "[23]; [28]", "value": 0}, {"measurement": "Ryegrass, Italian plant response rating (0-100)", "setting": "[24]; [27]", "value": 0}, {"measurement": "Ryegrass, Italian plant response rating (0 to 100 scale)", "setting": "[24]; [28]", "value": 0}, {"measurement": "Ragweed plant response rating (0-100)", "setting": "[25]; [27]", "value": 0}, {"measurement": "Ragweed plant response rating (0 to 100 scale)", "setting": "[25]; [28]", "value": 0}]}]}
